Active and inactive are the calls of the source. The rule behind the calls is not given here.
Assays:
OE19 = assay: Inhibition of cell proliferation in human OE19 cells upto 10 umol/L incubated for 72 hrs by DAPI staining based analysis; assay type: functional; settings: dose <= 10.0 µmol/L
[1] = target: Serine/threonine-protein kinase MARK2 (Homo sapiens) (UniProt Q7KZI7); assay: Inhibition of MARK2 (unknown origin) at 1 uM in presence of ATP relative to control; values are per cent of control
[2] = target: Insulin receptor (Homo sapiens) (UniProt P06213); assay: Inhibition of IR (unknown origin) at 1 uM in presence of ATP relative to control; values are per cent of control
[3] = target: Homeodomain-interacting protein kinase 1 (Homo sapiens) (UniProt Q86Z02); assay: Inhibition of HIPK1 (unknown origin) at 1 uM in presence of ATP relative to control; values are per cent of control
Chain of Homeodomain-interacting protein kinase 1 (Homo sapiens) (Q86Z02 whole entry, looked up): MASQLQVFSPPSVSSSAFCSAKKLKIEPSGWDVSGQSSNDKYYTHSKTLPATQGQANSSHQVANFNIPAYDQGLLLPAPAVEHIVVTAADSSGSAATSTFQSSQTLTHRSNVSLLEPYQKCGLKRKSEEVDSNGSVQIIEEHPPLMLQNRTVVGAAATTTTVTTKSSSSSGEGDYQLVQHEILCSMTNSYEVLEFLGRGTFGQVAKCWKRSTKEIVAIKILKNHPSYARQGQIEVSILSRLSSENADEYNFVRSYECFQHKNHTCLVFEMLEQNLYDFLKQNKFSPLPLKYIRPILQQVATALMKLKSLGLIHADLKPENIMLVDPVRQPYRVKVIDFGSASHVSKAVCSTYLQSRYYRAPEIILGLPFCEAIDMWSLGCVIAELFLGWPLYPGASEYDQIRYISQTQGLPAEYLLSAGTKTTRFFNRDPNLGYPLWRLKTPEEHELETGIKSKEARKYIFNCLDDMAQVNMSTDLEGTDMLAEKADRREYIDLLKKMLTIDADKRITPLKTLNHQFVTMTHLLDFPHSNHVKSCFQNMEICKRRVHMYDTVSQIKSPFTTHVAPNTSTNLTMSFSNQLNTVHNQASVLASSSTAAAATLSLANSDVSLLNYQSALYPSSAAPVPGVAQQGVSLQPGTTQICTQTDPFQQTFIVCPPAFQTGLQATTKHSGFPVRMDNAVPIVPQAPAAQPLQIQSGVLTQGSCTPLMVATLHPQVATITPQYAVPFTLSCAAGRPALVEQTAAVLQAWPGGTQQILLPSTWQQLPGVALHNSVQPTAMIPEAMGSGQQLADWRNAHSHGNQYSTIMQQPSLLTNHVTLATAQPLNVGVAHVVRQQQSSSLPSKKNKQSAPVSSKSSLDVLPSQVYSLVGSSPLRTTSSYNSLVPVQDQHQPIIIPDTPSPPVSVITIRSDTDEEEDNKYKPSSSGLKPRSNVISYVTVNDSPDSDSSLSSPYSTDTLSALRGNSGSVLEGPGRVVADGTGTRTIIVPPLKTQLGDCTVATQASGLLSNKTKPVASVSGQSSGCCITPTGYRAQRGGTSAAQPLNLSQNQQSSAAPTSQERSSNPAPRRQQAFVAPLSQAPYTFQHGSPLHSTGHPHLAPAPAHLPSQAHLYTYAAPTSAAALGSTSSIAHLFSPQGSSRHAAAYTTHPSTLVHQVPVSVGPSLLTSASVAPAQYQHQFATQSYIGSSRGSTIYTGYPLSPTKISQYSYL

[4] = target: Serine/threonine-protein kinase Chk2 (Homo sapiens) (UniProt O96017); assay: Inhibition of CHK2 (unknown origin) at 1 uM in presence of ATP relative to control; values are per cent of control
[5] = Clearance in dog at 1 mg/kg, iv administered as 20% hydroxypropyl-beta-cyclodextrin formulation by LC-MS analysis; assay type: ADME, organism-based, Canis lupus familiaris; settings: in vivo
C32 = assay: Inhibition of cell proliferation in human C32 cells upto 10 umol/L incubated for 72 hrs by DAPI staining based analysis; assay type: functional; settings: dose <= 10.0 µmol/L
[6] = target: Serine/threonine-protein kinase DCLK2 (Homo sapiens) (UniProt Q8N568); assay: Inhibition of DCAMKL2 (unknown origin) at 1 uM in presence of ATP relative to control; values are per cent of control
Chain of Serine/threonine-protein kinase DCLK2 (Homo sapiens) (Q8N568 whole entry): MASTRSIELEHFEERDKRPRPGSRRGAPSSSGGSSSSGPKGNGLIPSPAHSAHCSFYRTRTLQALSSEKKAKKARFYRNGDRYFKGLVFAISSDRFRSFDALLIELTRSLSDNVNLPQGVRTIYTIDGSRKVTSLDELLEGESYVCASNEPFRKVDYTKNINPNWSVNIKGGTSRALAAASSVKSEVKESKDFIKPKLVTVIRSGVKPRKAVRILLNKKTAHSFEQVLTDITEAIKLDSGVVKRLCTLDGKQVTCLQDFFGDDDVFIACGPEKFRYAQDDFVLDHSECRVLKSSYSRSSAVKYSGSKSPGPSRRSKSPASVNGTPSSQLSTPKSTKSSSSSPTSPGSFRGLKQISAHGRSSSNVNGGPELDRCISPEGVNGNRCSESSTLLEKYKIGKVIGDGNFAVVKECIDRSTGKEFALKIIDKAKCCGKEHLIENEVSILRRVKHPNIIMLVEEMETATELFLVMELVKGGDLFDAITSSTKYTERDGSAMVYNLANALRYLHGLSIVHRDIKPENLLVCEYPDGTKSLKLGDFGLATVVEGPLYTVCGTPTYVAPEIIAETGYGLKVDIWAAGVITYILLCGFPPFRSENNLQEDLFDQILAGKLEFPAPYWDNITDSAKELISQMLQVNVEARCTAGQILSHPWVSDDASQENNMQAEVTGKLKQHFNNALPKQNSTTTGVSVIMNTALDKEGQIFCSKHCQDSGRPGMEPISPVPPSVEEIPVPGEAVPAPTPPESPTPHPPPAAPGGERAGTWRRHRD

[7] = target: Mitogen-activated protein kinase 13 (Homo sapiens) (UniProt O15264); assay: Inhibition of […] (unknown origin) at 1 uM in presence of ATP relative to control; values are per cent of control
Chain of Mitogen-activated protein kinase 13 (Homo sapiens) (O15264 whole entry): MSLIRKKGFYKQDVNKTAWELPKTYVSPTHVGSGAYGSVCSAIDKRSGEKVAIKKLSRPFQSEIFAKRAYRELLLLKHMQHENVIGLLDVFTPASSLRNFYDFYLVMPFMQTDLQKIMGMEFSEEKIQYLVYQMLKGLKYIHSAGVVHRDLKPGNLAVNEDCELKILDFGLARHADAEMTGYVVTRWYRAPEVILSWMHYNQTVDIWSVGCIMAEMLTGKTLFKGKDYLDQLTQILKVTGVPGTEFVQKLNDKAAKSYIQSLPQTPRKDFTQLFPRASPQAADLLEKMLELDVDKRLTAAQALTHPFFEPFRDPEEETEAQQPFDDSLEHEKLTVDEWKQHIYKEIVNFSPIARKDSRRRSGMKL

DK-MG = assay: Inhibition of cell proliferation in human DK-MG cells upto 10 umol/L incubated for 72 hrs by DAPI staining based analysis; assay type: functional; settings: dose <= 10.0 µmol/L
[8] = target: Epidermal growth factor receptor (Homo sapiens) (UniProt P00533); assay: Inhibition of EGFR (unknown origin) at 1 uM in presence of ATP relative to control; values are per cent of control
[9] = target: Serine/threonine-protein kinase Sgk3 (Homo sapiens) (UniProt Q96BR1); assay: Inhibition of SGK3 (unknown origin) at 1 uM in presence of ATP relative to control; values are per cent of control
[10] = target: Serine/threonine-protein kinase PAK 4 (Homo sapiens) (UniProt O96013); assay: Inhibition of PAK4 (unknown origin) at 1 uM in presence of ATP relative to control; values are per cent of control
[11] = target: Myosin light chain kinase, smooth muscle (Homo sapiens) (UniProt Q15746); assay: Inhibition of MYLK (unknown origin) at 1 uM in presence of ATP relative to control; values are per cent of control
[12] = Inhibition of N-terminal 3FLAG-tagged ETV6-TRKC G623R mutant (unknown origin) expressed in NIH3T3 cells assessed as ERK1/2 phosphorylation incubated for 1 hrs by flow cytometric analysis; assay type: cell-based, Homo sapiens
[13] = target: Tyrosine-protein kinase FRK (Homo sapiens) (UniProt P42685); assay: Inhibition of PTK5 (unknown origin) at 1 uM in presence of ATP relative to control; values are per cent of control
[14] = target: Cyclin-dependent kinase 5/CDK5 activator 1 (Homo sapiens) (UniProt Q00535+Q15078); assay: Inhibition of CDK5/p35 (unknown origin) at 1 uM in presence of ATP relative to control; values are per cent of control
[15] = target: Inhibitor of nuclear factor kappa-B kinase subunit beta (Homo sapiens) (UniProt O14920); assay: Inhibition of IKKbeta (unknown origin) at 1 uM in presence of ATP relative to control; values are per cent of control
[16] = target: Misshapen-like kinase 1 (Homo sapiens) (UniProt Q8N4C8); assay: Inhibition of MINK (unknown origin) at 1 uM in presence of ATP relative to control; values are per cent of control
[17] = target: Dual specificity tyrosine-phosphorylation-regulated kinase 2 (Homo sapiens) (UniProt Q92630); assay: Inhibition of DYRK2 (unknown origin) at 1 uM in presence of ATP relative to control; values are per cent of control
[18] = AUC in adult patient with recurrent LMNA-NTRK1 rearranged colorectal cancer at 100 mg administered twice a day as powder-in-capsule or liquid formulation for 15 day by LC-MS/MS analysis; assay type: ADME; settings: human, in vivo, po
[19] = target: Discoidin domain-containing receptor 2 (Homo sapiens) (UniProt Q16832); assay: Inhibition of DDR2 (unknown origin) at 1 uM in presence of ATP relative to control; values are per cent of control
BT-20 = assay: Inhibition of cell proliferation in human BT-20 cells upto 10 umol/L incubated for 72 hrs by DAPI staining based analysis; assay type: functional; settings: dose <= 10.0 µmol/L
[20] = target: Calcium/calmodulin-dependent protein kinase type IV (Homo sapiens) (UniProt Q16566); assay: Inhibition of CAMK4 (unknown origin) at 1 uM in presence of ATP relative to control; values are per cent of control
[21] = target: Serine/threonine-protein kinase pim-3 (Homo sapiens) (UniProt Q86V86); assay: Inhibition of Pim-3 (unknown origin) at 1 uM in presence of ATP relative to control; values are per cent of control
[22] = target: Ephrin type-B receptor 4 (Homo sapiens) (UniProt P54760); assay: Inhibition of EphB4 (unknown origin) at 1 uM in presence of ATP relative to control; values are per cent of control
Chain of Ephrin type-B receptor 4 (Homo sapiens) (P54760 whole entry): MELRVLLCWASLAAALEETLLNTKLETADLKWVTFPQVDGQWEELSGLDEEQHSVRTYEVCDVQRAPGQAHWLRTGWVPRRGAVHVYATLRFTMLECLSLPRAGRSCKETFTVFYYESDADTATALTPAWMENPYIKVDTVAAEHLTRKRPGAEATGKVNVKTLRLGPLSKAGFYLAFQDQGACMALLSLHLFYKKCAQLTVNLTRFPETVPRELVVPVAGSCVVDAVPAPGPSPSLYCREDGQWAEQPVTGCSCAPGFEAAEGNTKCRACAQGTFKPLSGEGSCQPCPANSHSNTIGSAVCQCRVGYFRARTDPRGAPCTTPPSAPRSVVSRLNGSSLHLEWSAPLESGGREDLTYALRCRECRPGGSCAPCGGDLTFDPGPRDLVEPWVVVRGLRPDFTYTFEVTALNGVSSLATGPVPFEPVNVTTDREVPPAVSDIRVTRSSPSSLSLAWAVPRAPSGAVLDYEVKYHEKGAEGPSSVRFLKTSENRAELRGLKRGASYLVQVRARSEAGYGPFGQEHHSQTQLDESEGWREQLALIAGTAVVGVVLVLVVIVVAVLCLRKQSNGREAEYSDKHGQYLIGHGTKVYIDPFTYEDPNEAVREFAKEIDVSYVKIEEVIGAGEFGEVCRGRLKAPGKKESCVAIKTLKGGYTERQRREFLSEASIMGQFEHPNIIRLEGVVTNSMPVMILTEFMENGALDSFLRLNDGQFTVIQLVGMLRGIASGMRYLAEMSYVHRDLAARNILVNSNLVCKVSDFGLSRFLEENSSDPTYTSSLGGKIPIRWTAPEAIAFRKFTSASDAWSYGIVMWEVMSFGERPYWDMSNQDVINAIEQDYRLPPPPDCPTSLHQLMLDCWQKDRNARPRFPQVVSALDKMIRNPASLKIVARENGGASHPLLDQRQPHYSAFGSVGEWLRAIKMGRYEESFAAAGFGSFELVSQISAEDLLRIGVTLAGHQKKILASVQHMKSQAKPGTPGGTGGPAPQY

[23] = target: Tyrosine-protein kinase JAK2 (Homo sapiens) (UniProt O60674); assay: Inhibition of JAK2 (unknown origin) at 1 uM in presence of ATP relative to control; values are per cent of control
[24] = target: Ephrin type-A receptor 2 (Homo sapiens) (UniProt P29317); assay: Inhibition of EphA2 (unknown origin) at 1 uM in presence of ATP relative to control; values are per cent of control
Chain of Ephrin type-A receptor 2 (Homo sapiens) (P29317 whole entry): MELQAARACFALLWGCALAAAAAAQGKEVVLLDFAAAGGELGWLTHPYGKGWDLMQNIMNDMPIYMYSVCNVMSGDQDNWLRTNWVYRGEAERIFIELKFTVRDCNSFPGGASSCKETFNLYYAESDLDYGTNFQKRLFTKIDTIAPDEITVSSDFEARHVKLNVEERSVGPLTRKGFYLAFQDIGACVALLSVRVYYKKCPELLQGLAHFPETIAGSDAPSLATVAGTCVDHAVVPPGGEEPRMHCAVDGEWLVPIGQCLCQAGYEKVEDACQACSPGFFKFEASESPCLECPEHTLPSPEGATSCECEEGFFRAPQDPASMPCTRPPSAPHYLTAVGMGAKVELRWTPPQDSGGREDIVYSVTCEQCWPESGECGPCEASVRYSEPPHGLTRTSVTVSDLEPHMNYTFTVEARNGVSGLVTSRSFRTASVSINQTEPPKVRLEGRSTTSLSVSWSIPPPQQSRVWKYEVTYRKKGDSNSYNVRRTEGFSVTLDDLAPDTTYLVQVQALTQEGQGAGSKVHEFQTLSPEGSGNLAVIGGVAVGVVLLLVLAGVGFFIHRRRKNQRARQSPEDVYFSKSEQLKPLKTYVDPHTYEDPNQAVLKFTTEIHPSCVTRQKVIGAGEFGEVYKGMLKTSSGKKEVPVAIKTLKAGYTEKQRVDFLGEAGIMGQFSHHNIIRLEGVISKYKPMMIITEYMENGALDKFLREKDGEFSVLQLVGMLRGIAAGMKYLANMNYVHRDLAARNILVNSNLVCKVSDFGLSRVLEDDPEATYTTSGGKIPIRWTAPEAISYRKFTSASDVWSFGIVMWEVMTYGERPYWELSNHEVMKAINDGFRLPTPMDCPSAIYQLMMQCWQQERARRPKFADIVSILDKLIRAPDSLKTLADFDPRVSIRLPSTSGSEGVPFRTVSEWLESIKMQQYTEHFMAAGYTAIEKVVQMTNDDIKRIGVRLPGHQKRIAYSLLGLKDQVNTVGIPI

C[C@@H]1CCc2ncc(F)cc2[C@H]2CCCN2c2ccn3ncc(c3n2)C(=O)N1 [SELITRECTINIB]
inhibition (OE19): inactive
residual activity [1]: 107%
residual activity [2]: 92%
residual activity [3]: 106%
residual activity [4]: 99.5%
clearance [5]: 12.8 mL/min/kg
inhibition (C32): inactive
residual activity [6]: 140%
residual activity [7]: 110%
inhibition (DK-MG): inactive
residual activity [8]: 103%
residual activity [9]: 114%
residual activity [10]: 101%
residual activity [11]: 109%
IC50 [12]: 45.5 nM
residual activity [13]: 87.5%
residual activity [14]: 110%
residual activity [15]: 119%
residual activity [16]: 99.5%
residual activity [17]: 102%
AUC at 360 h [18]: 2620 ng·h/mL
residual activity [19]: 93%
inhibition (BT-20): inactive
residual activity [20]: 118%
residual activity [21]: 103%
residual activity [22]: 116%
residual activity [23]: 37.5%
residual activity [24]: 79.5%

Source: ChEMBL document CHEMBL5678816, “A Next-Generation TRK Kinase Inhibitor Overcomes Acquired Resistance to Prior TRK Kinase Inhibition in Patients with TRK Fusion-Positive Solid Tumors” (Cancer Discov, 2017)
